Assay results as given in patent US20080305500A1, “NOVEL CELL-BASED ASSAYS FOR IDENTIFYING ENHANCERS OR INHIBITORS OF T1R TASTE RECEPTORS (T1R2/T1R3 SWEET) AND UMAMI (T1R1/T1R3 UMAMI) TASTE RECEPTORS” (Senomyx, Inc., priority 2007, published 2008).
Where two headings read alike, the source gives them in different places.

Biological target: T1, human sweet receptor (T1R2 and T1R3) (Homo sapiens, UniProt Q7RTX0+Q8TE23)
T1 construct: expressed in transfected cells; host or cells: HEK293 cells co-expressing Galpha15
T1 sequence (Q8TE23 20-839): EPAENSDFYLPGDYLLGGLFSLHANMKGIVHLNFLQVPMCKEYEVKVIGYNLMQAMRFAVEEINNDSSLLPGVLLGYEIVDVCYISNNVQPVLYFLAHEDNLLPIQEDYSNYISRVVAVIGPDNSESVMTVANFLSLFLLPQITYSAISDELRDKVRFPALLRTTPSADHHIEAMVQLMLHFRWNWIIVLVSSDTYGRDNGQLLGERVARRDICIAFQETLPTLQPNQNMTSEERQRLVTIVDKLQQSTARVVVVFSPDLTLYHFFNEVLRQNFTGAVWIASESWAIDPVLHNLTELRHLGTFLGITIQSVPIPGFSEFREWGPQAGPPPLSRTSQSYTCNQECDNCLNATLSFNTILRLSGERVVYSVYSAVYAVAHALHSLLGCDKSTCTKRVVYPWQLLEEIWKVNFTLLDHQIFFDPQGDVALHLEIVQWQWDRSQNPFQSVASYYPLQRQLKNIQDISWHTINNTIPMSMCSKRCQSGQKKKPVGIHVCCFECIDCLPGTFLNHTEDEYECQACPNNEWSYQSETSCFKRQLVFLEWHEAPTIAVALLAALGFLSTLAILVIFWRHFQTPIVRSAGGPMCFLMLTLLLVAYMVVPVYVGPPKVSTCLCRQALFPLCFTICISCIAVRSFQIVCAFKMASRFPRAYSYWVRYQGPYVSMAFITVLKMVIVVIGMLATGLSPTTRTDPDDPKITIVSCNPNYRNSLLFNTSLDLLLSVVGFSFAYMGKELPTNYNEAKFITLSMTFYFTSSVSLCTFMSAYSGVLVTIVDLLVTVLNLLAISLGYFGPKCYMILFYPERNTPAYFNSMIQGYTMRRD
T1 sequence (Q7RTX0 21-852): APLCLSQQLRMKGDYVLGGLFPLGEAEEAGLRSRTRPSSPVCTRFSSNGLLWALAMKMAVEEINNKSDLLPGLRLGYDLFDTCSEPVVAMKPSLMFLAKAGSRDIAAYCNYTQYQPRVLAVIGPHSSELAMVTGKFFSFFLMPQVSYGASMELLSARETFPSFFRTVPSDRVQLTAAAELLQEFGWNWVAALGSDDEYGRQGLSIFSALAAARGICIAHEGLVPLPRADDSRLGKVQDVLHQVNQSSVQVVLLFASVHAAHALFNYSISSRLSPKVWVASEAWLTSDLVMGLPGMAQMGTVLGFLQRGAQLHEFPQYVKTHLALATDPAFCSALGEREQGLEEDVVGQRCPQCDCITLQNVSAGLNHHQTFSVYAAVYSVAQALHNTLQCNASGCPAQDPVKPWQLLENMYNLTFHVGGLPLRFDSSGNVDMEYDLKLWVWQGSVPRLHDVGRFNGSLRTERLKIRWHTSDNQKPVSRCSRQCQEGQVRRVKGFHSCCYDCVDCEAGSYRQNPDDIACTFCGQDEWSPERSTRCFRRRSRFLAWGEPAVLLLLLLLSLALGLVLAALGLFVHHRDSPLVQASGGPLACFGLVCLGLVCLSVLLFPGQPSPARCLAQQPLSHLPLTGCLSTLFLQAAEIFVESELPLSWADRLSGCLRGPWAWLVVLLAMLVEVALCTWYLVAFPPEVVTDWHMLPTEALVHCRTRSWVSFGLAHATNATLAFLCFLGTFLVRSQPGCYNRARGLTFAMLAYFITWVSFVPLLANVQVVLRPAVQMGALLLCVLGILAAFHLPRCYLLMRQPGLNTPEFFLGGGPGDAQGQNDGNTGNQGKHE
Assay: Calcium imaging (Fluo3AM/FLIPR) sweet receptor enhancer assay in hT1R2/hT1R3-HEK293 Galpha15 cells, with pre-incubation step
Type: cell-based
Details: read-out: potency of Sucralose (dose-response)
Procedure: In the subject assays the receptor or cells expressing same will be placed in a suitable environment that facilitates the receptor or cells to be used in the particular assay. For instance, in the exemplified calcium imaging assays cells which express hT1R2/hT1R3-HEK293 G[…]15 cells were seeded in 384-well-clear bottom plates (Fisher) at a density of ˜50,000 cells/well and grown overnight at 37 degrees C. However, it is anticipated that these cell density conditions and/or cell culture devices potentially may be altered.
On the day of the experiment, cells were loaded with a commercially available calcium indicator dye Fluo3AM (2 uM) (Invitrogen) in D-PBS (Invitrogen) using a Multidrop (Titertek). (Again while Fluo3AM is exemplified it is anticipated that other known and available calcium indicators can be substituted therefore). […] After 30 minutes of rest time at room temperature, Fluo3AM-loaded cell plate, a compound plate and a sweetener plate were loaded into a Fluorometric Imaging Plate Reader (FLIPR, Molecular Devices). […] Imaging was initiated with the acquisition of the baseline fluorescence for a period of 7 to 10 seconds, and then cells were stimulated on line with addition of 25 µl/well of the compound plate (pre-incubation step). […]

EC50 (cells pre-incubated with S2423 (50 uM or 25 uM final)): 11 µM
EC50 (without S2423): 53 µM
SMILES: OC[C@H]1O[C@H](O[C@]2(CCl)O[C@H](CCl)[C@@H](O)[C@@H]2O)[C@H](O)[C@@H](O)[C@H]1Cl [Sucralose]
